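GI50 marks 50% less growth. TGI marks complete inhibition of growth.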
What was measured:
Experiment in all cases: NCI anticancer screen, dose series, 384-well format
[1] = tested on: OVCAR-5 ovarian
[2] = tested on: SN12C renal
[3] = tested on: BT-549 breast
[4] = tested on: UACC-257 melanoma
[5] = tested on: SF-539 CNS
[6] = tested on: MCF7 breast
[7] = tested on: HS 578T breast
[8] = tested on: SK-MEL-5 melanoma
[9] = tested on: NCI-H226 lung
[10] = tested on: OVCAR-8 ovarian
[11] = tested on: MDA-MB-468 breast
[12] = tested on: IGROV1 ovarian
[13] = tested on: CAKI-1 renal
[14] = tested on: CCRF-CEM leukemia
[15] = tested on: T-47D breast
[16] = tested on: PC-3 prostate
[17] = tested on: MOLT-4 leukemia
[18] = tested on: HCT-116 colon
[19] = tested on: UACC-62 melanoma
[20] = tested on: OVCAR-3 ovarian
[21] = tested on: SK-MEL-2 melanoma
[22] = tested on: HCT-15 colon
[23] = tested on: HCC-2998 colon
[24] = tested on: HOP-62 NSCLC
[25] = tested on: RPMI-8226 leukemia
[26] = tested on: HT29 colon
[27] = tested on: SNB-75 CNS
[28] = tested on: OVCAR-4 ovarian
[29] = tested on: NCI-H23 lung
[30] = tested on: DU-145 prostate
[31] = tested on: UO-31 renal
[32] = tested on: SW-620 colon
[33] = tested on: K-562 leukemia
[34] = tested on: RXF 393 renal
[35] = tested on: MDA-MB-435 melanoma
[36] = tested on: TK-10 renal
[37] = tested on: SK-MEL-28 melanoma
[38] = tested on: A498 renal
[39] = tested on: NCI-H522 lung
[40] = tested on: SF-295 CNS
[41] = tested on: SF-268 CNS
[42] = tested on: EKVX NSCLC
[43] = tested on: LOX IMVI melanoma
[44] = tested on: NCI-H322M lung
[45] = tested on: A549 NSCLC
[46] = tested on: ACHN renal
[47] = tested on: NCI-H460 NSCLC

SMILES: Cc1nc2ccc(-n3ncc(C(=O)c4cc5ccccc5[nH]4)c3N)cc2[nH]1
- GI50 [1]: 8.84 µM
- TGI [1]: > 82.6 µM
- GI50 [2]: 6.46 µM
- TGI [2]: 45.9 µM
- GI50 [3]: 5.72 µM
- TGI [3]: 20.7 µM
- GI50 [4]: 15.1 µM
- TGI [4]: 32.6 µM
- GI50 [5]: 2.13 µM
- TGI [5]: 10.5 µM
- GI50 [6]: 6.62 µM
- TGI [6]: 24.8 µM
- GI50 [7]: 6.48 µM
- TGI [7]: 26 µM
- GI50 [8]: 4.2 µM
- TGI [8]: 17.4 µM
- GI50 [9]: 5.45 µM
- TGI [9]: 29.5 µM
- GI50 [10]: 6.08 µM
- TGI [10]: 18.8 µM
- GI50 [11]: 4.15 µM
- TGI [11]: 16.7 µM
- GI50 [12]: 6 µM
- TGI [12]: 22.8 µM
- GI50 [13]: 6.43 µM
- TGI [13]: 39.8 µM
- GI50 [14]: 5.85 µM
- TGI [14]: 18.7 µM
- GI50 [15]: 6.8 µM
- TGI [15]: 19.3 µM
- GI50 [16]: 7.51 µM
- TGI [16]: 26.6 µM
- GI50 [17]: 1.93 µM
- TGI [17]: 5 µM
- GI50 [18]: 3.78 µM
- TGI [18]: 16.1 µM
- GI50 [19]: 5.92 µM
- TGI [19]: 18.6 µM
- GI50 [20]: 10.7 µM
- TGI [20]: 26 µM
- GI50 [21]: 28.2 µM
- TGI [21]: 44 µM
- GI50 [22]: 1.56 µM
- TGI [22]: 13.4 µM
- GI50 [23]: 13.1 µM
- TGI [23]: 30.8 µM
- GI50 [24]: 12.2 µM
- TGI [24]: 29.6 µM
- GI50 [25]: 6.35 µM
- TGI [25]: 17.3 µM
- GI50 [26]: 5.55 µM
- TGI [26]: 20.5 µM
- GI50 [27]: 2.34 µM
- TGI [27]: 19.8 µM
- GI50 [28]: 10.4 µM
- TGI [28]: 40.2 µM
- GI50 [29]: 17.5 µM
- TGI [29]: 36.4 µM
- GI50 [30]: 12.7 µM
- TGI [30]: 41.7 µM
- GI50 [31]: 7.35 µM
- TGI [31]: 34.5 µM
- GI50 [32]: 10.4 µM
- TGI [32]: 51.2 µM
- GI50 [33]: 3.95 µM
- TGI [33]: 14.3 µM
- GI50 [34]: 2.37 µM
- TGI [34]: 10.5 µM
- GI50 [35]: 11.2 µM
- TGI [35]: 42.9 µM
- GI50 [36]: 4.78 µM
- TGI [36]: 20.5 µM
- GI50 [37]: 19.5 µM
- TGI [37]: 58.3 µM
- GI50 [38]: 12.4 µM
- TGI [38]: 33.5 µM
- GI50 [39]: 5.33 µM
- TGI [39]: 17.6 µM
- GI50 [40]: 10.4 µM
- TGI [40]: 26.9 µM
- GI50 [41]: 10.6 µM
- TGI [41]: 55.9 µM
- GI50 [42]: 15.3 µM
- TGI [42]: 41.1 µM
- GI50 [43]: 3.27 µM
- TGI [43]: 8.34 µM
- GI50 [44]: 16.4 µM
- TGI [44]: 38.9 µM
- GI50 [45]: 9.61 µM
- TGI [45]: 56.8 µM
- GI50 [46]: 8.92 µM
- TGI [46]: 48.5 µM
- GI50 [47]: 2.37 µM
- TGI [47]: 9.74 µM

SMILES: CC(C)n1cc(-c2ccc3c(c2)N(C)CC3)c2c(NS(=O)(=O)c3ccn(C)n3)ccnc21
- GI50 [1]: > 100 µM
- TGI [1]: > 100 µM
- GI50 [2]: > 100 µM
- TGI [2]: > 100 µM
- GI50 [3]: > 100 µM
- TGI [3]: > 100 µM
- GI50 [4]: > 100 µM
- TGI [4]: > 100 µM
- GI50 [5]: > 100 µM
- TGI [5]: > 100 µM
- GI50 [6]: 56.3 µM
- TGI [6]: > 100 µM
- GI50 [7]: 69.3 µM
- TGI [7]: > 100 µM
- GI50 [8]: > 100 µM
- TGI [8]: > 100 µM
- GI50 [9]: > 96.1 µM
- TGI [9]: > 100 µM
- GI50 [10]: > 70.4 µM
- TGI [10]: > 100 µM
- GI50 [11]: 56.8 µM
- TGI [11]: > 100 µM
- GI50 [12]: > 74.4 µM
- TGI [12]: > 100 µM
- GI50 [13]: > 100 µM
- TGI [13]: > 100 µM
- GI50 [14]: 45.3 µM
- TGI [14]: > 100 µM
- GI50 [15]: 50.9 µM
- TGI [15]: > 100 µM
- GI50 [16]: 66.7 µM
- TGI [16]: > 100 µM
- GI50 [17]: 39.1 µM
- TGI [17]: > 100 µM
- GI50 [18]: > 100 µM
- TGI [18]: > 100 µM
- GI50 [19]: 63.4 µM
- TGI [19]: > 100 µM
- GI50 [20]: 40.5 µM
- TGI [20]: > 87.6 µM
- GI50 [21]: > 100 µM
- TGI [21]: > 100 µM
- GI50 [22]: 90.6 µM
- TGI [22]: > 100 µM
- GI50 [23]: > 100 µM
- TGI [23]: > 100 µM
- GI50 [24]: > 78.1 µM
- TGI [24]: > 100 µM
- GI50 [25]: 21.8 µM
- TGI [25]: 52.9 µM
- GI50 [26]: > 77.2 µM
- TGI [26]: > 100 µM
- GI50 [27]: > 88.1 µM
- TGI [27]: > 100 µM
- GI50 [28]: 59.8 µM
- TGI [28]: > 100 µM
- GI50 [29]: > 70 µM
- TGI [29]: > 100 µM
- GI50 [30]: > 70.7 µM
- TGI [30]: > 100 µM
- GI50 [31]: 78.6 µM
- TGI [31]: > 100 µM
- GI50 [32]: > 51.5 µM
- TGI [32]: > 81.7 µM
- GI50 [33]: 53.2 µM
- TGI [33]: > 100 µM
- GI50 [34]: 51.2 µM
- TGI [34]: > 100 µM
- GI50 [35]: > 93 µM
- TGI [35]: > 100 µM
- GI50 [36]: > 100 µM
- TGI [36]: > 100 µM
- GI50 [37]: > 93.5 µM
- TGI [37]: > 100 µM
- GI50 [38]: 85.7 µM
- TGI [38]: > 100 µM
- GI50 [39]: > 80.4 µM
- TGI [39]: > 100 µM
- GI50 [40]: 37 µM
- TGI [40]: > 91.2 µM
- GI50 [41]: > 100 µM
- TGI [41]: > 100 µM
- GI50 [42]: 75.6 µM
- TGI [42]: > 100 µM
- GI50 [43]: 65.8 µM
- TGI [43]: > 100 µM
- GI50 [44]: > 100 µM
- TGI [44]: > 100 µM
- GI50 [45]: 47.1 µM
- TGI [45]: > 100 µM
- GI50 [46]: > 100 µM
- TGI [46]: > 100 µM
- GI50 [47]: > 85.7 µM
- TGI [47]: > 100 µM

Reference: PubChem BioAssay (NCI)
